Measured values as given in patent US11020358B2, “Method for the anti-senescence of and/or rejuvenating stem cells” (GWO XI STEM CELL APPLIED TECHNOLOGY CO., LTD., priority 2014, dated 2021).

Key:
ADSCs = test: Osteogenic differentiation assay; type: cell-based, human; details: H2O2 group ADSCs (100 μM 2 h), compared to untreated group
Procedure: Four portions of equal volume of the above culture medium containing the sub-cultured ADSCs were separately handled by adding thereinto H2O2 (purchased from Sigma-Aldrich) at a final concentration of 100 μM and reacting for 2 hours to induce senescence of the ADSCs, replacing the culture medium with a fresh culture medium, adding thereinto TC (trans-cinnamaldehyde, purchased from Sigma-Aldrich) at a final concentration of 0, 2, 4 or 6 μM and reacting for 6 hours, so as to obtain “H2O2 group (i.e., treated with H2O2 for 2 hours, but not treated with TC),” “H2O2+TC2 group (i.e., treated with H2O2 for 2 hours and then treated with 2 μM of TC for 6 hours),” “H2O2+TC4 group (i.e., treated with H2O2 for 2 hours and then treated with 4 μM of TC for 6 hours),” and “H2O2+TC6 group (i.e., treated with H2O2 for 2 hours and then treated with 6 μM of TC for 6 hours)” ADSCs. […] After being photographed, the absorbance at a wavelength of 450 nm (i.e., OD450) of each sample was measured to figure out the effect of H2O2 and/or TC on the osteogenic differentiation capacity of ADSCs.

SIRT1 gene = test: Quantitative RT-PCR of SIRT1 gene in ADSCs; type: cell-based, human
Procedure: Four portions of equal volume of the above culture medium containing the sub-cultured ADSCs were separately handled by adding thereinto H2O2 (purchased from Sigma-Aldrich) at a final concentration of 100 μM and reacting for 2 hours to induce senescence of the ADSCs, replacing the culture medium with a fresh culture medium, adding thereinto TC (trans-cinnamaldehyde, purchased from Sigma-Aldrich) at a final concentration of 0, 2, 4 or 6 μM and reacting for 6 hours, so as to obtain “H2O2 group (i.e., treated with H2O2 for 2 hours, but not treated with TC),” “H2O2+TC2 group (i.e., treated with H2O2 for 2 hours and then treated with 2 μM of TC for 6 hours),” “H2O2+TC4 group (i.e., treated with H2O2 for 2 hours and then treated with 4 μM of TC for 6 hours),” and “H2O2+TC6 group (i.e., treated with H2O2 for 2 hours and then treated with 6 μM of TC for 6 hours)” ADSCs.
Five portions of equal volume of the above culture medium containing the sub-cultured ADSCs were separately handled by adding thereinto with H2O2 at a final concentration of 100 μM and reacting for 2 hours to induce senescence of the ADSCs. Then, the culture medium in each of the five portions was replaced with a fresh culture medium. The first portion was handed by adding thereinto TC at a final concentration of 6 μM and reacting for 6 hours to obtain “TC6H group” ADSCs. The second to fifth portions were handled by adding thereinto TC at a final concentration of 6 μM, reacting for 6 hours, and then transferring and incubating the ADSCs in DMEM for 12, 24, 48 and 72 hours respectively to obtain “TC12H group,” “TC24H group,” “TC48H group” and “TC72H group” ADSCs. […]
Each of the cDNA of ADSCs of different groups from Experiment (3-1) was handled as follows. […] The mixture was then placed in a real-time quantitative PCR machine (ABI prism 7700 sequence detection system) to perform a reaction for quantifying the gene expression levels. […]

| Compound | cell number after osteogenic differentiation (OD450) (ADSCs) | expression levels of SIRT1 gene (quantitative RT-PCR) (SIRT1 gene; ADSCs treated only with 2, 4 and 6 μM TC 6 h (FIG. 5A)) | time for which the effect of TC on increasing SIRT1 gene expression is maintained (SIRT1 gene; H2O2-senescent ADSCs, 6 μM TC 6 h, then incubated in DMEM 12-72 h, no significant difference to TC6H group) | expression levels of SIRT1 gene (quantitative RT-PCR) (SIRT1 gene; H2O2-senescent ADSCs, 2, 4 and 6 μM TC 6 h, compared to H2O2 group (FIG. 5B)) |
| --- | --- | --- | --- | --- |
| OO [H2O2, reference compound] | significantly reduced | – | – | – |
| O=C/C=C/c1ccccc1 [TC, trans-cinnamaldehyde] | – | significantly increased along with the increment in the concentration of TC | at least 72 hours | significantly increased along with the increment in the concentration of TC |
